Measured values as given in ChEMBL document CHEMBL4038351, “Structure-Guided Development of Covalent and Mutant-Selective Pyrazolopyrimidines to Target T790M Drug Resistance in Epidermal Growth Factor Receptor” (J Med Chem, 2017).
Converted amounts (≈) assume the structure as drawn. The source made the active and inactive calls. No cut-off for these calls is given here.

Legend:
HCC827 [1] = assay: cells; type: functional, cell-based; conditions: Homo sapiens
Description: Antiproliferative activity against human HCC827 cells harboring EGFR-delE746_A750 mutant incubated for 96 hrs measured on day 5 by CellTiterGlo assay

NCI-H1975 [2] = assay: cells; type: functional, cell-based; conditions: Homo sapiens
A-431 [3] = assay: cells; type: ADME, cell-based; conditions: Homo sapiens
Description: Antiproliferative activity against human A431 cells expressing wild type EGFR incubated for 96 hrs measured on day 5 by CellTiterGlo assay

A549 [4] = assay: cells; type: ADME, cell-based; conditions: Homo sapiens
Description: Antiproliferative activity against human A549 cells harboring KRAS-G12S mutant incubated for 96 hrs measured on day 5 by CellTiterGlo assay

[5] = target: Epidermal growth factor receptor (Homo sapiens, UniProt P00533)
A549 [6] = assay: Antiproliferative activity against human A549 cells harboring KRAS-G12S mutant at 30 uM incubated for 96 hrs measured on day 5 by CellTiterGlo assay; type: cell-based; conditions: a549, 96 h
[7] = target: Epidermal growth factor receptor (Homo sapiens, UniProt P00533, L858R)
[8] = target: Epidermal growth factor receptor (Homo sapiens, UniProt P00533, L858R/T790M)
NCI-H1975 [9] = assay: Antiproliferative activity against human NCI-H1975 cells harboring EGFR-L858R/T790M double mutant at 30 uM incubated for 96 hrs measured on day 5 by CellTiterGlo assay; type: functional, cell-based
HCC827 [10] = assay: Antiproliferative activity against human HCC827 cells harboring EGFR-delE746_A750 mutant at 30 uM incubated for 96 hrs measured on day 5 by CellTiterGlo assay; type: functional, cell-based
A-431 [11] = assay: Antiproliferative activity against human A431 cells expressing wild type EGFR at 30 uM incubated for 96 hrs measured on day 5 by CellTiterGlo assay; type: cell-based; conditions: a-431, 96 h
[12] = Metabolic stability in human plasma at 5 uM incubated for 1 hr by LC-MS method; type: ADME, cell-free; conditions: read-out: Stability
in vitro [13] = conditions: human, liver microsomes
[14] = Kinetic solubility in Hepes buffer at 500 uM at pH 7.4 after 90 mins; type: physicochemical; conditions: read-out: Kinetic_solubility
[15] = Fraction unbound in mouse 100% plasma at 5 uM incubated for 6 hrs by LC-MS method; type: ADME, cell-free
in vitro [16] = conditions: mouse, liver microsomes
[17] = Apparent permeability across apical to basolateral side in human Caco2 cells at 5 uM incubated for 2 hrs; type: ADME, cell-based, Caco-2; conditions: for Papp A→B at 2 h, 5 µM: Caco-2
[18] = Metabolic stability in mouse plasma at 5 uM incubated for 1 hr by LC-MS method; type: ADME, cell-free; conditions: read-out: Stability
[19] = Permeability of the compound at 500 uM incubated for 20 hrs by PAMPA; type: physicochemical
[20] = Apparent permeability across basolateral to apical side in human Caco2 cells at 5 uM incubated for 2 hrs; type: ADME, cell-based, Caco-2; conditions: for Papp B→A at 2 h, 5 µM: Caco-2
[21] = test system: Epidermal growth factor receptor (Homo sapiens), P00533 [L858R,T790M]; assay: Covalent binding affinity to human recombinant GST-tagged EGFR L858R/T790M double mutant expressed in baculovirus expression system by mass spectrometry

Row | Compound | EC50 (HCC827 [1]) [nM] | EC50 (NCI-H1975 [2]) [nM] | EC50 (A-431 [3]) [nM] | EC50 (A549 [4]) [nM] | IC50 [5] [nM] | Activity (A549 [6]) | IC50 [7] [nM] | IC50 [8] [nM] | further results
1 | CN(C)C/C=C/C(=O)Nc1cc2c(Nc3ccc(F)c(Cl)c3)ncnc2cc1O[C@H]1CCOC1 [AFATINIB] | < 14 | 600 | 200 | 1490 |  |  |  |  | 
2 | C=CC(=O)N1CCC[C@@H](n2nc(-c3ccc(O)cc3)c3c(N)ncnc32)C1 | 70 | 1840 | 4170 | 20000 |  |  |  |  | 
3 | CN(C)C/C=C/C(=O)N1CCC[C@@H](n2nc(-c3cccc(C(F)(F)F)c3)c3c(N)ncnc32)C1 | 6390 | 20600 | 13700 |  | 7300 | Non-Toxic | 1000 | 6100 | 
4 | C=CC(=O)N1CCC[C@@H](n2nc(-c3ccc(C(F)(F)F)cc3)c3c(N)ncnc32)C1 | 160 | 1380 | 8870 |  | 60 | Non-Toxic | 60 | 270 | 
5 | CCC(=O)N1CCC[C@@H](n2nc(-c3ccccc3)c3c(N)ncnc32)C1 |  |  |  |  | 7300 | Non-Toxic | 4700 | > 10000 | Activity (NCI-H1975 [9]): inactive; Activity (HCC827 [10]): inactive; Activity (A-431 [11]): Non-Toxic
6 | C=CC(=O)N1CCC[C@@H](n2nc(-c3cccc(F)c3)c3c(N)ncnc32)C1 | 70 | 3370 | 11700 |  | 130 | Non-Toxic | 10 | 230 | 
7 | CCC(=O)N1CCC[C@@H](n2nc(-c3cccc(C(F)(F)F)c3)c3c(N)ncnc32)C1 |  |  |  |  | > 10000 | Non-Toxic | > 10000 | > 10000 | Activity (NCI-H1975 [9]): inactive; Activity (HCC827 [10]): inactive; Activity (A-431 [11]): Non-Toxic
8 | C=CC(=O)Nc1cccc(Nc2nc(Nc3ccc(N4CCN(C(C)=O)CC4)cc3OC)ncc2C(F)(F)F)c1 [ROCILETINIB] | 45 | 100 |  |  |  |  |  |  | remaining at 1 h, 5 µM [12]: 78%; microsomal CLint at 50 min, 3 µM (in vitro [13]): 5.1 µL/min/mg; solubility kinetic at 1.5 h, 500 µM [14]: 10 µM (≈ 5.56 µg/mL); fraction unbound at 6 h, 5 µM [15]: 0.01; microsomal CLint at 50 min, 3 µM (in vitro [16]): 81 µL/min/mg; Papp A→B at 2 h, 5 µM [17]: 0.05 ×10⁻⁶ cm/s; remaining at 1 h, 5 µM [18]: 75%; permeability [19]: 88%; Papp B→A at 2 h, 5 µM [20]: 0.068 ×10⁻⁶ cm/s
9 | C=CC(=O)N1CCC[C@@H](n2nc(-c3cnc4[nH]ccc4c3)c3c(N)ncnc32)C1 | < 14 | 280 | 1390 | 3450 | 10 |  |  | 3 | remaining at 1 h, 5 µM [12]: 98%; microsomal CLint at 50 min, 3 µM (in vitro [13]): 108 µL/min/mg; solubility kinetic at 1.5 h, 500 µM [14]: 457 µM (≈ 178 µg/mL); fraction unbound at 6 h, 5 µM [15]: 0.37; microsomal CLint at 50 min, 3 µM (in vitro [16]): 495 µL/min/mg; remaining at 1 h, 5 µM [18]: 96%; permeability [19]: 27%
10 | C#Cc1nn([C@@H]2CCCN(C(=O)C=C)C2)c2ncnc(N)c12 | 2050 | 16200 | 29600 | 28300 | 1500 |  | 960 | 690 | 
11 | C=CC(=O)N1CCC[C@@H](n2nc(-c3ccc(N(C)C)c4ccccc34)c3c(N)ncnc32)C1 | 2130 | 2670 | 24500 |  | 810 | Non-Toxic | 270 | 210 | 
12 | CCC(=O)N1CCC[C@@H](n2nc(-c3ccc(F)cc3)c3c(N)ncnc32)C1 | 25900 |  |  |  | > 10000 | Non-Toxic | 5000 | > 10000 | Activity (NCI-H1975 [9]): inactive; Activity (A-431 [11]): Non-Toxic
13 | C=CC(=O)Nc1cccc(Oc2nc(Nc3ccc(N4CCN(C)CC4)cc3OC)ncc2Cl)c1 | 20 | 90 |  | 3990 |  |  |  |  | 
14 | C=CC(=O)N1CCC[C@@H](n2nc(C#CCC3CCCC3)c3c(N)ncnc32)C1 | 3150 | 6930 | 8770 | 19900 | 750 |  | 120 | 920 | 
15 | C=CC(=O)N1CCC[C@@H](n2nc(-c3cccc4ccccc34)c3c(N)ncnc32)C1 | 500 | 490 | 29400 |  | 60 | Non-Toxic |  | 2 | remaining at 1 h, 5 µM [12]: 100%; microsomal CLint at 50 min, 3 µM (in vitro [13]): 770 µL/min/mg; solubility kinetic at 1.5 h, 500 µM [14]: 38 µM (≈ 15.1 µg/mL); fraction unbound at 6 h, 5 µM [15]: 0.15; microsomal CLint at 50 min, 3 µM (in vitro [16]): 2770 µL/min/mg; remaining at 1 h, 5 µM [18]: 90%; Activity [21]: Active; permeability [19]: 82%
16 | C=CC(=O)N1CCC[C@@H](n2nc(C3CC3)c3c(N)ncnc32)C1 | 310 | 5830 | 28100 |  | 700 | Non-Toxic | 110 | 220 | 
17 | C=CC(=O)N1CCC[C@@H](n2nc(-c3ccc(F)cc3)c3c(N)ncnc32)C1 |  |  |  |  | 130 |  | 30 | 280 | 
18 | C=CC(=O)Nc1cc(Nc2nccc(-c3cn(C)c4ccccc34)n2)c(OC)cc1N(C)CCN(C)C [OSIMERTINIB] | […] | […] |  | […] |  |  |  |  | remaining at 1 h, 5 µM [12]: […]; microsomal CLint at 50 min, 3 µM (in vitro [13]): 4.1 µL/min/mg; solubility kinetic at 1.5 h, 500 µM [14]: 265 µM (≈ 132 µg/mL); fraction unbound at 6 h, 5 µM [15]: 0.03; microsomal CLint at 50 min, 3 µM (in vitro [16]): […]; Papp A→B at 2 h, 5 µM [17]: […]; remaining at 1 h, 5 µM [18]: […]; permeability [19]: 112%; Papp B→A at 2 h, 5 µM [20]: […]
19 | CCC(=O)N1CCC[C@@H](n2nc(-c3cccc(F)c3)c3c(N)ncnc32)C1 | 22300 |  |  |  | > 10000 | Non-Toxic | 3400 | > 10000 | Activity (NCI-H1975 [9]): inactive; Activity (A-431 [11]): Non-Toxic
20 | C=CC(=O)N1CCC[C@@H](n2nc(-c3ccc(Oc4ccccc4)cc3)c3c(N)ncnc32)C1 [IBRUTINIB] | 450 | 640 | 2380 |  |  | Non-Toxic |  |  | remaining at 1 h, 5 µM [12]: 80%; solubility kinetic at 1.5 h, 500 µM [14]: 57 µM (≈ 25.1 µg/mL); fraction unbound at 6 h, 5 µM [15]: 0.01; Papp ([17]; caco-2, 2 h, 5 µM): 40 ×10⁻⁸ cm/s; remaining at 1 h, 5 µM [18]: 96%; permeability [19]: 38%; Papp ([20]; caco-2, 2 h, 5 µM): 0.9 ×10⁻⁸ cm/s
21 | C=CC(=O)N1CCC[C@@H](n2nc(C#CC3CCCC3)c3c(N)ncnc32)C1 | 1150 | 8270 | 10900 | 27100 | 750 |  | 60 | 1400 | 
22 | CCC(=O)N1CCC[C@@H](n2nc(-c3ccc(C(F)(F)F)cc3)c3c(N)ncnc32)C1 | 23600 |  |  |  | 6500 | Non-Toxic | 5900 | > 10000 | Activity (NCI-H1975 [9]): inactive; Activity (A-431 [11]): Non-Toxic
23 | C=CC(=O)N1CCC[C@@H](n2nc(-c3ccc(F)c4ccccc34)c3c(N)ncnc32)C1 | 430 | 360 | 12800 |  |  | Non-Toxic |  |  | 
24 | CN(C)C/C=C/C(=O)N1CCC[C@@H](n2nc(-c3ccccc3)c3c(N)ncnc32)C1 | 1190 | 29900 | 29800 |  | 3000 | Non-Toxic | 220 | 6600 | 
25 | C=CC(=O)N1CCC[C@@H](n2nc(-c3ccccc3)c3c(N)ncnc32)C1 | 70 | 3670 | 12700 | 21700 | 140 |  | 10 | 240 | remaining at 1 h, 5 µM [12]: 97%; microsomal CLint at 50 min, 3 µM (in vitro [13]): 122 µL/min/mg; solubility kinetic at 1.5 h, 500 µM [14]: 461 µM (≈ 161 µg/mL); fraction unbound at 6 h, 5 µM [15]: 0.33; microsomal CLint at 50 min, 3 µM (in vitro [16]): 924 µL/min/mg; remaining at 1 h, 5 µM [18]: 91%; permeability [19]: 59%
26 | C=CC(=O)N1CCC[C@@H](n2nc(Cc3ccccc3)c3c(N)ncnc32)C1 | 150 | 690 | 19900 |  | 20 | Non-Toxic | 3 | 10 | 
27 | C=CC(=O)N1CCC[C@@H](n2nc(-c3cccc(C(F)(F)F)c3)c3c(N)ncnc32)C1 | 650 | 4160 | 16000 | 22200 |  |  | 30 | 220 | remaining at 1 h, 5 µM [12]: 96%; microsomal CLint at 50 min, 3 µM (in vitro [13]): 578 µL/min/mg; solubility kinetic at 1.5 h, 500 µM [14]: 427 µM (≈ 178 µg/mL); fraction unbound at 6 h, 5 µM [15]: 0.09; microsomal CLint at 50 min, 3 µM (in vitro [16]): 2770 µL/min/mg; remaining at 1 h, 5 µM [18]: 99%; permeability [19]: 76%
28 | C=CC(=O)N1CCC[C@@H](n2ncc3c(N)ncnc32)C1 | 9900 |  |  |  | 6900 | Non-Toxic | 2500 | 1600 | Activity (NCI-H1975 [9]): inactive; Activity (A-431 [11]): Non-Toxic
